The record followed here is PubChem BioAssay (NCI).

Some test systems named below: CCRF-CEM leukemia; HL-60(TB) leukemia; SK-OV-3 ovarian; SW-620 colon; 786-0 renal; SNB-19 CNS; K-562 leukemia; UACC-257 melanoma; SR leukemia; RXF 393 renal; HCT-116 colon; MDA-MB-435; MCF7 breast.
Holding throughout (test): NCI tumour cell line growth inhibition, 48 h

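The compound was tested at five concentrations on cells cultured in 96-well plates, with a 48-hour exposure period. TGI is the concentration that stops growth completely.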 Where a SMILES comes first, the peptide text is derived from it.

On to `O=C(NC(Nc1ccc(F)cc1)(C(F)(F)F)C(F)(F)F)C(C(F)(F)F)C(F)(F)F`, for which the TGI with CCRF-CEM leukemia was 19.7 µM; in the experiment with HL-60(TB) leukemia, 15.1 µM; in the experiment with SK-OV-3 ovarian it was greater than 100 µM; in the experiment on SW-620 colon, greater than 100 µM; in the experiment with 786-0 renal it was greater than 100 µM; with SNB-19 CNS, greater than 100 µM. Besides, the TGI in the experiment on K-562 leukemia is greater than 100 µM; in the experiment with UACC-257 melanoma, greater than 100 µM; in the experiment with SR leukemia, greater than 95.8 µM; in the experiment on RXF 393 renal, greater than 100 µM; with HCT-116 colon, greater than 100 µM; with MDA-MB-435 it was greater than 100 µM. Moreover, the TGI in the experiment on MCF7 breast is greater than 100 µM.
For `Oc1cccc2cc(Br)cnc12`, the TGI was 7.81 µM in the experiment on CCRF-CEM leukemia; 4 µM in the experiment on HL-60(TB) leukemia; greater than 100 µM in the experiment on SK-OV-3 ovarian; greater than 100 µM with SW-620 colon; greater than 100 µM in the experiment on 786-0 renal; greater than 100 µM with SNB-19 CNS. Moreover, the TGI with K-562 leukemia is 16.1 µM; in the experiment with UACC-257 melanoma, 27.3 µM; with SR leukemia, greater than 52 µM; with RXF 393 renal it was 88.2 µM; with HCT-116 colon, greater than 42.7 µM; with MDA-MB-435, greater than 100 µM. Also, the TGI in the experiment on MCF7 breast was greater than 100 µM.
In the case of `CN(C)c1ccc(-c2ccc(N(C)C)c3n[se]nc23)c2n[se]nc12`, the TGI in the experiment with CCRF-CEM leukemia, in the experiment with HL-60(TB) leukemia, with SK-OV-3 ovarian, in the experiment on SW-620 colon, with 786-0 renal and in the experiment with K-562 leukemia was greater than 100 µM in each case. Further, the TGI in the experiment on UACC-257 melanoma, in the experiment on SR leukemia, in the experiment on RXF 393 renal, in the experiment with HCT-116 colon, in the experiment with MDA-MB-435 and in the experiment on MCF7 breast was greater than 100 µM in each case.
For the compound `N#Cc1c(Cl)nc2ccccc2c1N=[N+]=[N-]`, the TGI stood at 4.24 µM in the experiment with CCRF-CEM leukemia; 3.3 µM in the experiment with HL-60(TB) leukemia; 29 µM in the experiment with SK-OV-3 ovarian; 3.54 µM in the experiment with SW-620 colon; 7.17 µM with 786-0 renal; 29.7 µM in the experiment with SNB-19 CNS. Further, the TGI in the experiment on K-562 leukemia was determined as 2.45 µM; with UACC-257 melanoma it was 27.8 µM; in the experiment with SR leukemia it was 3.93 µM; in the experiment on RXF 393 renal it was 2.93 µM; with HCT-116 colon, 3.06 µM; in the experiment with MDA-MB-435, 17.7 µM. The compound also came in with a TGI in the experiment on MCF7 breast of 22.5 µM.
For `CN1C=Cc2nccc3cc4c(c1c23)OCO4`, the TGI is greater than 100 µM in the experiment on CCRF-CEM leukemia; greater than 100 µM in the experiment on HL-60(TB) leukemia; 61.6 µM with SK-OV-3 ovarian; greater than 100 µM in the experiment on SW-620 colon; 24.8 µM in the experiment on 786-0 renal; 41 µM with SNB-19 CNS. Further, the TGI in the experiment on K-562 leukemia is greater than 100 µM; in the experiment with UACC-257 melanoma, 16.9 µM; in the experiment on SR leukemia it was 10.9 µM; in the experiment on RXF 393 renal, 7.61 µM; in the experiment with HCT-116 colon it was 35.2 µM; in the experiment on MDA-MB-435 it was 12.1 µM. In the experiment on MCF7 breast, the TGI was greater than 23.6 µM.
In the case of `CC1(C)C2CC3C4CC5(Nc6ccccc6C5N41)[C@]3(C)CC2=O` (stereo partly drawn), the TGI with CCRF-CEM leukemia, in the experiment with HL-60(TB) leukemia, in the experiment on SW-620 colon, in the experiment on 786-0 renal, in the experiment on K-562 leukemia and with UACC-257 melanoma was greater than 50 µM each time. Besides, the TGI with SR leukemia, in the experiment with RXF 393 renal, in the experiment with HCT-116 colon, with MDA-MB-435 and with MCF7 breast was greater than 50 µM each time.
As for `O=C(CCCl)NNC1=NCCCCN1`, the TGI in the experiment on CCRF-CEM leukemia, with HL-60(TB) leukemia, in the experiment with SK-OV-3 ovarian, in the experiment on SW-620 colon, in the experiment with 786-0 renal and with SNB-19 CNS was greater than 100 µM each time. In addition, the TGI in the experiment on K-562 leukemia, with UACC-257 melanoma, with SR leukemia, with RXF 393 renal, in the experiment on HCT-116 colon and in the experiment with MDA-MB-435 was greater than 100 µM throughout. Further, the TGI with MCF7 breast is greater than 100 µM.
On to `O=C1c2ccccc2CC12Cc1ccccc1C2`, for which the TGI in the experiment with CCRF-CEM leukemia was greater than 100 µM; in the experiment with HL-60(TB) leukemia, 48.4 µM; in the experiment on SK-OV-3 ovarian, greater than 100 µM; in the experiment on SW-620 colon it was greater than 100 µM; in the experiment on 786-0 renal it was greater than 100 µM; in the experiment on SNB-19 CNS, greater than 100 µM. Moreover, the TGI is greater than 100 µM in the experiment on K-562 leukemia; 54.2 µM with UACC-257 melanoma; 83.5 µM in the experiment on SR leukemia; 70.1 µM in the experiment on RXF 393 renal; greater than 100 µM in the experiment with HCT-116 colon; greater than 100 µM with MDA-MB-435. Further, in the experiment with MCF7 breast, the TGI was greater than 100 µM.
As for `CC(C)CC(NC(=O)C(Cc1ccccc1)NC(=O)C(Cc1c[nH]c2ccccc12)NC(=O)CNC(=O)C(N)Cc1ccc(O)cc1)C(=O)O` (stereo not drawn) (H-YGWFL-OH; configuration not given here), the TGI with CCRF-CEM leukemia was greater than 100 µM; in the experiment with HL-60(TB) leukemia it was 60.9 µM; with SK-OV-3 ovarian, greater than 100 µM; in the experiment with 786-0 renal, 49.4 µM; in the experiment on SNB-19 CNS, greater than 100 µM; in the experiment on UACC-257 melanoma, greater than 100 µM. The TGI is greater than 100 µM with SR leukemia; greater than 100 µM with RXF 393 renal; 70.6 µM in the experiment with HCT-116 colon; greater than 100 µM with MDA-MB-435; greater than 100 µM in the experiment on MCF7 breast.
Regarding `O=C(CC(=O)N1N=C(N(c2ccccc2)c2ccccc2)CC1c1ccccc1)Nc1ccc(Cl)cc1` (stereo not drawn), the TGI in the experiment with CCRF-CEM leukemia, with HL-60(TB) leukemia, in the experiment on SK-OV-3 ovarian, in the experiment on SW-620 colon, in the experiment on 786-0 renal and with SNB-19 CNS was greater than 100 µM in each case. The TGI in the experiment with K-562 leukemia, with UACC-257 melanoma, in the experiment with SR leukemia, with RXF 393 renal, in the experiment on HCT-116 colon and in the experiment with MDA-MB-435 was greater than 100 µM each time. The compound further displayed a TGI in the experiment on MCF7 breast greater than 100 µM.
With `O=C1N[C@@H]2c3c(Br)sc(Br)c3C(=O)[C@@H]2O1`, the TGI in the experiment on CCRF-CEM leukemia was 3.94 µM; in the experiment on HL-60(TB) leukemia, 1.96 µM; in the experiment on SK-OV-3 ovarian it was 32.7 µM; with SW-620 colon, 4.04 µM; in the experiment with 786-0 renal, 19.8 µM; in the experiment on SNB-19 CNS it was 30.3 µM. The TGI was 2.56 µM in the experiment on K-562 leukemia; 8.76 µM with UACC-257 melanoma; 4.03 µM in the experiment on SR leukemia; 4.95 µM in the experiment on RXF 393 renal; 2.78 µM with HCT-116 colon; 6.33 µM with MDA-MB-435. Moreover, the TGI in the experiment on MCF7 breast was found to be 12.6 µM.
